Assay results taken from PubChem BioAssay AID1963968 (Molecular Pharmacology Branch, DTP, NCI, 2024).

Tested on: 945468-187-T-J3-PDC spheroids with HUVEC/MSC, viability
Test: Anticancer human tumor 945468-187-T-J3-PDC patient-derived rectal carcinoma cell line growth inhibition [PI3K]
Details: for IC50: curve of first compound; for viability, T/C: stronger effect = lower value; active means viability on the fitted dose curve at most 10% of control; inactive means the rest
In short: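 Targeted small molecules plus PI3K inhibitors, half-log dose series from Cmax (default top 10 microM), were applied to heterotypic spheroids of cancer cells with HUVEC and MSCs. Viability indicated growth inhibition.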

[1] = second compound 0.0316 µM, first compound 0.0316 µM
[2] = second compound 0.0316 µM, first compound 0.1 µM
[3] = second compound 0.0316 µM, first compound 0.316 µM
[4] = second compound 0.0316 µM, first compound 1 µM
[5] = second compound 0.0316 µM, first compound 3.16 µM
[6] = second compound 0.0316 µM, first compound 10 µM
[7] = second compound 0.1 µM, first compound 0.0316 µM
[8] = second compound 0.1 µM, first compound 0.1 µM
[9] = second compound 0.1 µM, first compound 0.316 µM
[10] = second compound 0.1 µM, first compound 1 µM
[11] = second compound 0.1 µM, first compound 3.16 µM
[12] = second compound 0.1 µM, first compound 10 µM
[13] = second compound 0.316 µM, first compound 0.0316 µM
[14] = second compound 0.316 µM, first compound 0.1 µM
[15] = second compound 0.316 µM, first compound 0.316 µM
[16] = second compound 0.316 µM, first compound 1 µM
[17] = second compound 0.316 µM, first compound 3.16 µM
[18] = second compound 0.316 µM, first compound 10 µM
[19] = second compound 1 µM, first compound 0.0316 µM
[20] = second compound 1 µM, first compound 0.1 µM
[21] = second compound 1 µM, first compound 0.316 µM
[22] = second compound 1 µM, first compound 1 µM
[23] = second compound 1 µM, first compound 3.16 µM
[24] = second compound 1 µM, first compound 10 µM
[25] = second compound 3.16 µM, first compound 0.0316 µM
[26] = second compound 3.16 µM, first compound 0.1 µM
[27] = second compound 3.16 µM, first compound 0.316 µM
[28] = second compound 3.16 µM, first compound 1 µM
[29] = second compound 3.16 µM, first compound 3.16 µM
[30] = second compound 3.16 µM, first compound 10 µM
[31] = second compound 10 µM, first compound 0.0316 µM
[32] = second compound 10 µM, first compound 0.1 µM
[33] = second compound 10 µM, first compound 0.316 µM
[34] = second compound 10 µM, first compound 1 µM
[35] = second compound 10 µM, first compound 3.16 µM
[36] = second compound 10 µM, first compound 10 µM
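Further: spheroids exposed to agents for 7 days before viability read.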
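Wherever viability, T/C is given: 100% = DMSO vehicle control viability.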

CCCS(=O)(=O)Nc1ccc(F)c(C(=O)c2c[nH]c3ncc(-c4ccc(Cl)cc4)cc23)c1F + Cc1nc(NC(=O)N2CCCC2C(N)=O)sc1-c1ccnc(C(C)(C)C(F)(F)F)c1
6.38 µM: IC50 (second compound 0.0316 µM)
8.19 µM: IC50 (second compound 0.316 µM)
active: viability, T/C [36] 5.18%
inactive: viability, T/C [1] 99.8% | viability, T/C [2] 109% | viability, T/C [3] 87.1% | viability, T/C [4] 103% | viability, T/C [5] 107% | viability, T/C [6] 17.1% | viability, T/C [7] 111% | viability, T/C [8] 98% | viability, T/C [9] 93.3% | viability, T/C [10] 105% | viability, T/C [11] 107% | viability, T/C [12] 26.9% | viability, T/C [13] 109% | viability, T/C [14] 101% | viability, T/C [15] 100% | viability, T/C [16] 119% | viability, T/C [17] 108% | viability, T/C [18] 37.9% | viability, T/C [19] 119% | viability, T/C [20] 116% | viability, T/C [21] 112% | viability, T/C [22] 114% | viability, T/C [23] 104% | viability, T/C [24] 56.9% | viability, T/C [25] 106% | viability, T/C [26] 110% | viability, T/C [27] 101% | viability, T/C [28] 99.7% | viability, T/C [29] 96.3% | viability, T/C [30] 31.2% | viability, T/C [31] 67.1% | viability, T/C [32] 52.8% | viability, T/C [33] 53.3% | viability, T/C [34] 64.9% | viability, T/C [35] 41.5%
1.84 µM: IC50 (second compound 10 µM)
7.2 µM: IC50 (second compound 3.16 µM)
> 10 µM: IC50 (second compound 1 µM)
7.05 µM: IC50 (second compound 0.1 µM)

C[C@@H](NC(=O)c1ncnc(N)c1Cl)c1ncc(C(=O)Nc2cc(C(F)(F)F)c(Cl)cn2)s1 + Cc1nc(NC(=O)N2CCCC2C(N)=O)sc1-c1ccnc(C(C)(C)C(F)(F)F)c1
> 10 µM: IC50 (second compound 0.0316 µM) | IC50 (second compound 0.1 µM) | IC50 (second compound 0.316 µM) | IC50 (second compound 1 µM) | IC50 (second compound 3.16 µM) | IC50 (second compound 10 µM)
inactive: viability, T/C [1] 107% | viability, T/C [2] 107% | viability, T/C [3] 91.6% | viability, T/C [4] 111% | viability, T/C [5] 106% | viability, T/C [6] 105% | viability, T/C [7] 101% | viability, T/C [8] 97.2% | viability, T/C [9] 94.8% | viability, T/C [10] 110% | viability, T/C [11] 111% | viability, T/C [12] 107% | viability, T/C [13] 95.8% | viability, T/C [14] 98.6% | viability, T/C [15] 95.4% | viability, T/C [16] 120% | viability, T/C [17] 112% | viability, T/C [18] 100% | viability, T/C [19] 108% | viability, T/C [20] 115% | viability, T/C [21] 102% | viability, T/C [22] 114% | viability, T/C [23] 97.6% | viability, T/C [24] 107% | viability, T/C [25] 108% | viability, T/C [26] 98% | viability, T/C [27] 101% | viability, T/C [28] 96.4% | viability, T/C [29] 99% | viability, T/C [30] 103% | viability, T/C [31] 67.1% | viability, T/C [32] 51.1% | viability, T/C [33] 44.1% | viability, T/C [34] 56% | viability, T/C [35] 61.9% | viability, T/C [36] 51.3%

Cn1ncnc1[C@H]1c2n[nH]c(=O)c3cc(F)cc(c23)N[C@@H]1c1ccc(F)cc1 + Cc1nc(NC(=O)N2CCCC2C(N)=O)sc1-c1ccnc(C(C)(C)C(F)(F)F)c1
> 0.1 µM: IC50 (second compound 0.0316 µM) | IC50 (second compound 0.1 µM) | IC50 (second compound 0.316 µM) | IC50 (second compound 1 µM) | IC50 (second compound 3.16 µM) | IC50 (second compound 10 µM)
inactive: viability, T/C (second compound 0.0316 µM, first compound 0.000316 µM) 96.6% | viability, T/C (second compound 0.0316 µM, first compound 0.001 µM) 102% | viability, T/C (second compound 0.0316 µM, first compound 0.00316 µM) 101% | viability, T/C (second compound 0.0316 µM, first compound 0.01 µM) 116% | viability, T/C [1] 116% | viability, T/C [2] 114% | viability, T/C (second compound 0.1 µM, first compound 0.000316 µM) 105% | viability, T/C (second compound 0.1 µM, first compound 0.001 µM) 105% | viability, T/C (second compound 0.1 µM, first compound 0.00316 µM) 91.8% | viability, T/C (second compound 0.1 µM, first compound 0.01 µM) 106% | viability, T/C [7] 120% | viability, T/C [8] 100% | viability, T/C (second compound 0.316 µM, first compound 0.000316 µM) 111% | viability, T/C (second compound 0.316 µM, first compound 0.001 µM) 103% | viability, T/C (second compound 0.316 µM, first compound 0.00316 µM) 92.6% | viability, T/C (second compound 0.316 µM, first compound 0.01 µM) 118% | viability, T/C [13] 115% | viability, T/C [14] 105% | viability, T/C (second compound 1 µM, first compound 0.000316 µM) 118% | viability, T/C (second compound 1 µM, first compound 0.001 µM) 109% | viability, T/C (second compound 1 µM, first compound 0.00316 µM) 89.9% | viability, T/C (second compound 1 µM, first compound 0.01 µM) 115% | viability, T/C [19] 99.8% | viability, T/C [20] 97.4% | viability, T/C (second compound 3.16 µM, first compound 0.000316 µM) 116% | viability, T/C (second compound 3.16 µM, first compound 0.001 µM) 103% | viability, T/C (second compound 3.16 µM, first compound 0.00316 µM) 98.7% | viability, T/C (second compound 3.16 µM, first compound 0.01 µM) 109% | viability, T/C [25] 107% | viability, T/C [26] 103% | viability, T/C (second compound 10 µM, first compound 0.000316 µM) 58.2% | viability, T/C (second compound 10 µM, first compound 0.001 µM) 68% | viability, T/C (second compound 10 µM, first compound 0.00316 µM) 61.3% | viability, T/C (second compound 10 µM, first compound 0.01 µM) 53.3% | viability, T/C [31] 63.7% | viability, T/C [32] 51.3%
